In patent US6403554B2, “Polyunsaturated fatty acid derivatives and their use” (Ardenia Investments Ltd., priority 1998, dated 2002):
Values joined by “and” are separate entries in the source; they are usually repeats but may differ in a detail not shown here. Equal values may be shown once. “Also recorded” adds a separate entry of the source.

B1: human AFP: Alpha-fetoprotein isolated from human cord blood by immunoaffinity chromatography; AFP of Examples 38-41 (protein, UniProt P02771 19-609, looked up)
Alpha-fetoprotein: RTLHRNEYGIASILDSYQCTAEISLADLATIFFAQFVQEATYKEVSKMVKDALTAIEKPTGDEQSSGCLENQLPAFLEELCHEKEILEKYGHSDCCSQSEEGRHNCFLAHKKPTPASIPLFQVPEPVTSCEAYEEDRETFMNKFIYEIARRHPFLYAPTILLWAARYDKIIPSCCKAENAVECFQTKAATVTKELRESSLLNQHACAVMKNFGTRTFQAITVTKLSQKFTKVNFTEIQKLVLDVAHVHEHCCRGDVLDCLQDGEKIMSYICSQQDTLSNKITECCKLTTLERGQCIIHAENDEKPEGLSPNLNRFLGDRDFNQFSSGEKNIFLASFVHEYSRRHPQLAVSVILRVAKGYQELLEKCFQTENPLECQDKGEEELQKYIQESQALAKRSCGLFQKLGEYYLQNAFLVAYTKKAPQLTSSELMAITRKMAATAATCCQLSEDKLLACGEGAADIIIGHLCIRHEMTPVNPGVGQCCTSSYANRRPCFSSLVVDETYVPPAFSDDKFIFHKDLCQAQGVALQTMKQEFLINLVKQKPQITEEQLEAVIADFSGLLEKCCQGQEQEVCFAEEGQKLISKTRAALGV
B2: rat AFP: Alpha-fetoprotein isolated from neonatal rat serum; AFP of Examples 42-44 (protein, UniProt P02773 25-611, looked up)
Alpha-fetoprotein: RVLHTNEFGIESTLDSSQCPTEKNMFNVATIVVAQFVQDATKAEVNKMSSDALAAMKENTGDGCLENQLSVFLDEICHETELSNKYGFSGCCNQSGVERHQCLLARKKTAPDSVPPFHFPETAESCPAYEENRAMSINTFIYDVSKRNPFLYAPTILYLAAQYDKAVPACCKADNMEECFQTKRASMAKELREGSMLNEHVCAVIRKFGSRNLQAVLIIKLSQKFPKANITEIRKLALDVAHIHEQCCHGNAMECLQDGESVMTHMCSQQEILSSKTAECCKLPTIELGYCIIHAENGDKPEGLTLNPSEFLGDRNFAQFSSEEKLLFMASFLHEYSRNHPNLPVSVILKTAKSYQEILEKCSQSETPSKCQDNMEEELQKHIQESQALAKQSCNLYQKLGPYYLQNLFLIGYTRKAPQLTSAELIDLTGKMVSIASTCCQLSEEKRSACGEGLADIYIGHLCLRHEANPVNSGINHCCSSSYSNRRLCITSFLRDETYVPPPFSEDKFIFHKDLCQAQGRALQTMKQELLINLVKQKPEMTEEQHAAVTADFSGLLEKCCKDQDQEACFAKEGPKLISKTREALGV

System: antibody-forming cells (AFC) in the spleen
Test: Influence of AFP/compound complexes and their components on humoral immune response (AFC in spleen)
Type: in vivo, C57B1/6 mice
Conditions: for Dose at which immunostimulating effect in vivo is displayed: compound in a complex with AFP
Description: 0.15 ml of AFP/Compound 3 complex was administered intravenously to 6 mice males of C57B1/6 line (weight 18-22 g) in the dose of […] of AFP and 45.5 μg of compound 3 per capita. Simultaneously suspension of 5·10^7 sheep erythrocytes was injected intraperitoneally (0.2 ml per capita). In the group with compound 3 mice were injected intravenously by one in the dose of 45.5 μg. Animals of group with AFP received 9 μg of AFP. Mice of control group were injected intravenously with equal volume of saline. Complex AFP/Compound 3 effect on humoral immune response was analyzed by counting the quantity of AFC in the spleen according to Cunningham (per 10^6 spleen cells and per spleen).
0.15 ml of AFP/Compound 2a complex (1:100) was administered intravenously to 6 mice males of C57B1/6 line (weight 18-22 g) in the dose of 9 μg of AFP and 45.5 μg of compound 2a per capita. Simultaneously, a suspension of 5·10^7 sheep erythrocytes was injected intraperitoneally (0.2 ml per capita). In the group with compound 2a mice were injected intravenously by one in the dose of 45.5 μg. Animals of group with AFP received 9 μg of AFP. Mice in the control group were injected intravenously with an equal volume of saline. The effect of the AFP/Compound 2a complex on humoral immune response was analyzed by counting the quantity of AFC in the spleen according to Cunningham (per 10^6 spleen cells and per spleen).
(§1) 0.15 ml of AFP/Compound 10 complex (1:200) was administered intravenously to 6 male mice of C57B1/6 line (weight 18-22 g) in the dose of 9 μg of AFP and 91 μg of compound 10 per capita. Simultaneously, a suspension of 5·10^7 sheep erythrocytes was injected intraperitoneally (0.2 ml per capita). In the group receiving compound 10 mice were injected intravenously by one in the dose of 91 μg. Animals in the group with AFP received 9 μg of AFP. Micein the control group were injected intravenously with an equal volume of saline. The effect of the AFP/Compound 10 complex on humoral immune response was analyzed by counting the quantity of AFC in the spleen according to Cunningham (per 10^6 spleen cells and per spleen).
as §1, with “AFP/Compound 14” for “AFP/Compound 10”, “compound 14” for “compound 10”, “group with” for “group receiving”, “Animals of” for “Animals in the”, “AFP. Mice in” for “AFP. Micein”
0.15 ml of AFP/Compound 7 complex (1:200) was administered intravenously to 6 male mice of C57B1/6 line (weight 18-22 g) in the dose of 9 μg of AFP and 91 μg of compound 7 per capita. Simultaneously, a suspension of 5·10^7 sheep erythrocytes was injected intraperitoneally (0.2 ml per capita). In the group with compound 7 mice were injected intravenously by one in the dose of 91 μg. Animals of group with AFP received 9 μg of AFP. Mice of control group were injected intravenously with equal volume of saline. AFP/Compound 7 complex effect on humoral immune response was analyzed by counting the quantity of AFC in the spleen according to Cunningham (per 10^6 spleen cells and per spleen).
0.15 ml of AFP/Compound 15 complex (1:200) was administered intravenously to 6 mice males of C57B1/6 line (weight 18-22 g) in the dose of 9 μg of AFP and 91 μg of compound 15 per capita. Simultaneously, a suspension of 5·10^7 sheep erythrocytes was injected intraperitoneally (0.2 ml per capita). In the group receiving compound 15, the mice were injected intravenously by one in the dose of 91 μg. Animals in the AFP-group received 9 μg of AFP. […]

[1] = AFP alone 9 μg/mouse i.v., 5-th day, male mice

| Molecule | Dose at which immunostimulating effect in vivo is displayed | Immunogenic activity (compound alone, 91 μg/mouse) | Immunogenic activity (AFP alone, 9 μg/mouse) | further results |
| --- | --- | --- | --- | --- |
| CC1=C(/C=C/C(C)=C/C=C/C(C)=C/C(=O)NCCOP(=O)(O)O)C(C)(C)CCC1 [Compound 1, N-(all-trans-retinoyl)-o-phospho-2-aminoethanol] | 45.5 μg/mouse |  |  | Immunogenic activity (compound alone, 45.5 μg/mouse): no immunogenic activity; also recorded: do not inhibit immunogenic activity |
| CCCCC/C=C\C/C=C\C/C=C\C/C=C\CCCC(=O)N[C@H](C(=O)O)[C@@H](C)OP(=O)(O)O [Compound 7, N-arachidonoyl-o-phospho-L-threonine] | 91 μg/mouse | no immunogenic activity; also recorded: do not inhibit immunogenic activity |  |  |
| CC/C=C\C/C=C\C/C=C\C/C=C\C/C=C\CCCC(=O)N[C@H](C(=O)O)[C@@H](C)OP(=O)(O)O [Compound 15, N-eicosapentaenoyl-o-phospho-L-threonine] | 91 μg/mouse | no immunogenic activity; also recorded: do not inhibit immunogenic activity |  |  |
| B1 |  |  | no immunogenic activity; also recorded: do not inhibit immunogenic activity |  |
| B2 |  |  | no immunogenic activity; also recorded: do not inhibit immunogenic activity | Relative amount of AFC (per 10^6 spleen cells) [1]: 521.4±49.1 and 507.2±27.5 and 346.1±26.8; Total AFC amount (per spleen) [1]: 59.7±5.1 ·10^3 and 64.6±6.8 ·10^3 and 34.1±3.3 ·10^3 |
